# Measurements reported in patent US20050153930A1, “Inhibition of a novel calcium injury current that forms in nuerons during injury prevents neuronal cell death” (Robert J. DeLorenzo, priority 2000, published 2005).
# Entries after “also recorded” stand apart in the source; their conditions may differ. Counter-ions that a name gives are not always drawn. Like-named read-outs stand apart in the source and are kept apart here.
# Tests used:
# Format in all cases: cell-based, rat
# [1] = test system: hippocampal neurons in culture; experiment: Neuronal cell death / survival after excitotoxic glutamate, aging or chronic glutamate injury; conditions: for neuronal cell death produced by excitotoxic glutamate exposure: acute excitotoxic injury, treatment after injury
# [2] = test system: Injury Induced Calcium Channel (IICC); experiment: Voltage clamp current/voltage relationship of the injury induced calcium current
# [3] = test system: hippocampal neurons in culture; experiment: Intracellular calcium measurement (Indo-1 / Fura-FF) after excitotoxic glutamate exposure; conditions: for prolonged elevation of intra cellular calcium / entry of extra cellular calcium following injury: after excitotoxic glutamate exposure
# [4] = test system: hippocampal neurons in culture; experiment: Extended neuronal depolarization (END), membrane potential recording after excitotoxic glutamate exposure
# [5] = administered alone or in combination (without gadolinium) after the 10 minute glutamate exposure
# [6] = chronically administered during aging of neurons
# [7] = applied in wash after 10 min 100 uM glutamate + 10 uM glycine
# [8] = chronic exposure during numerous minor chronic glutamate injuries
# [9] = neurons in END after excitotoxic glutamate, voltage steps -90 to +60 mV
compound,measurement,setting,value
C[C@H]1C[C@@H]2[C@H]([C@@H](O)C[C@@]3(C)[C@H]2CC[C@]3(O)C(=O)CO)[C@@]2(C)C=CC(=O)C=C12 [methlyprednisolone],neuronal survival,[1]; [5],had no significant effect on neuronal survival
"O=C(O)CCCCC1CCSS1 (stereo not drawn) [alpha-lipoate, 1,2-dithiolane-3-pentanoic acid]",neuronal survival,[1]; [5],had no significant effect on neuronal survival
"[Cd] [cadmium, reference compound]",effect on IICC current (calcium injury current),[2],None of these calcium channel blockers had any effect
"[Cl][Gd]([Cl])[Cl] [gadolinium, gadolinium chloride]",prolonged elevation of intra cellular calcium / entry of extra cellular calcium following injury,[3],able to block the extra cellular calcium entering from the bathing solution; also recorded: blocked by gadolinium
same,prolonged elevation of intra cellular calcium / entry of extra cellular calcium following injury,[3]; listed as Gadolinium,effective in reversing the prolonged elevation of intra cellular calcium
same,calcium entry and accumulation,"[3]; chronic administration, chronic injury model",blocked calcium entry and accumulation
same,calcium entry,[3]; [6],blocked calcium entry
same,time for intra cellular calcium to return to baseline levels,"[3]; gadolinium in wash after excitotoxic glutamate, controls sustained at approximately 1-2 uM (indo-1)",30 to 40 min
same,reversal of END,[4]; [7],blocked by gadolinium; also recorded: effective in reversing END
same,reversal of END,"[4]; applied in wash after 10 min 100 uM glutamate + 10 uM glycine, listed as Gadolinium",as effective as zero calcium in reversing END; also recorded: able to reverse END as well as zero calcium
same,development of END,"[4]; chronic administration, chronic injury model (multiple minor glutamate exposures)",blocked calcium entry and accumulation and the development of END
same,development of END,[4]; [6],blocked calcium entry and the development of END
same,time for END to return to baseline levels,"[4]; gadolinium in wash after excitotoxic glutamate, controls manifested END for greater than one hour",30 to 40 min
same,neuronal cell death produced by excitotoxic glutamate exposure,[1],effective in reversing
same,neuronal cell death produced by excitotoxic glutamate exposure,[1]; listed as Gadolinium,prevention of delayed neuronal cell death
same,life span of neurons / cell death associated with aging,[1]; administered chronically to neurons as they aged,effective in significantly increasing the life span of the neurons; also recorded: prolonged the life of the neurons
same,neuronal cell death from chronic injury,[1]; [8],prevented the gradual production of neuronal cell death
same,neuronal cell death,[1]; excitotoxic injury in the presence of gadolinium,did not die
same,formation of IICCs,[2]; [8],blocked the formation of IICCs
same,development of IICCs,[2]; given chronically to aging neurons,blocked the development of IICCs
same,effect on IICC current (calcium injury current),[2]; [9],inhibited the IICC current
same,effect on IICC current (calcium injury current),"[2]; neurons in END after excitotoxic glutamate, voltage steps -90 to +60 mV, listed as Gadolinium",effectively inhibited the IICC current
same,effect on IICC current (calcium injury current),"[2]; neurons in END after excitotoxic glutamate, voltage steps -90 to +60 mV, listed as gadolinium chloride",returns the neuron from END to baseline (control) conditions
"Cc1c(C)c2c(c(C)c1O)CC[C@@](C)(CCC[C@H](C)CCC[C@H](C)CCCC(C)C)O2 [vitamin E, alpha-tocopherol]",neuronal survival,[1]; [5],had no significant effect on neuronal survival
CCN(CC)Cc1nccn1-c1ccc([N+](=O)[O-])cc1C(=O)c1ccccc1Cl [nizofenone],neuronal survival,[1]; [5],had no significant effect on neuronal survival
CCCCCCCCCCCCCCCC(=O)OC[C@H](O)[C@H]1OC(=O)C(O)=C1O [ascorbyl palmitate],neuronal survival,[1]; [5],had no significant effect on neuronal survival
O=c1ccc2ccccc2o1 [coumarin],neuronal survival,[1]; [5],had no significant effect on neuronal survival
C[C@@H]1C[C@H]2[C@@H]3CCC4=CC(=O)C=C[C@]4(C)C3=CC[C@]2(C)[C@H]1C(=O)CN1CCN(c2cc(N3CCCC3)nc(N3CCCC3)n2)CC1 [tirilazad mesylate],neuronal survival,[1]; [5],had no significant effect on neuronal survival
dilauryl ascorbate,neuronal survival,[1],had no significant effect on neuronal survival
"N[C@@H](CCCP(=O)(O)O)C(=O)O [APV, reference compound]",effect on IICC current (calcium injury current),[2]; [9],None of the glutamate receptor antagonists had any effect
"[Cl-].[Cl-].[Zn+2] [zinc chloride, reference compound]",reversal of END,"[4]; 5 uM, after excitotoxic glutamate exposure",did not prevent END
same,reversal of END,"[4]; 5 uM, after excitotoxic glutamate exposure, listed as zinc",had no effect in reversing END
"COc1ccc(CCCOC(Cn2ccnc2)c2ccc(OC)cc2)cc1 (stereo not shown) [SKF-96365, reference compound]",reversal of END,[4]; [7],had no effect on reversing END
heparin,neuronal survival,[1]; [5],had no significant effect on neuronal survival
"N#Cc1cc2[nH]c(=O)c(=O)[nH]c2cc1[N+](=O)[O-] [CNQX, reference compound]",effect on IICC current (calcium injury current),[2]; [9],None of the glutamate receptor antagonists had any effect
CC1=C(/C=C/C(C)=C/C=C/C(C)=C/C=C/C=C(C)/C=C/C=C(C)/C=C/C2=C(C)CCCC2(C)C)C(C)(C)CCC1 [beta-carotene],neuronal survival,[1]; [5],had no significant effect on neuronal survival
"NS(=O)(=O)c1cccc2c1c([N+](=O)[O-])cc1nc(O)c(O)nc12 [NBQX, reference compound]",effect on IICC current (calcium injury current),[2]; [9],None of the glutamate receptor antagonists had any effect
"O=C1O[C@H]([C@@H](O)CO)C(O)=C1O [vitamin C, ascorbic acid]",neuronal survival,[1],had no significant effect on neuronal survival
"CC(C)COCC(CN(Cc1ccccc1)c1ccccc1)N1CCCC1 (stereo not shown) [Bepridil, reference compound]",reversal of END,[4]; [7],did not block END; also recorded: had no effect in reversing END
same,effect on IICC current (calcium injury current),[2],had no effect on blocking the observed calcium injury current
